Where two headings read alike, the source gives them in different places.
Assays:
Assay in all cases: HotSpot kinase profiling
Type in all cases: biochemical
MEK3 = molecular target: T1, MEK3 (Homo sapiens, UniProt P46734)
T1 construct: purchased Reaction Biology Corp
T1 sequence (P46734 1-347): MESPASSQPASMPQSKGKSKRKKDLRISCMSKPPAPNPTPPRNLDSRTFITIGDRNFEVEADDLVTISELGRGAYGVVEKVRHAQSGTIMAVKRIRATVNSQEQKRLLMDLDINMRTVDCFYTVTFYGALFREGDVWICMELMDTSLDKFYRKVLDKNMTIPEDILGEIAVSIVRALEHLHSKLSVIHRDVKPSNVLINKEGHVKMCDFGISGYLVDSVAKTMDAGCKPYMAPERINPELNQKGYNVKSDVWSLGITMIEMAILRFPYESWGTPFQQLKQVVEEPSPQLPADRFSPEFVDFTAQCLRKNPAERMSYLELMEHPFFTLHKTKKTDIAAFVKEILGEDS
How it was run: (§1)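 Radiometric kinase assay with P81 filter capture; each kinase was added to fresh substrate plus cofactors in reaction buffer and incubated 2 h at room temperature. Unreacted phosphate was washed off with 0.1% phosphoric acid before detection; percent inhibition is relative to DMSO control, averaged over replicates.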

CLK1 = molecular target: T2, CLK1 (Homo sapiens, UniProt P49759)
T2 construct: purchased Reaction Biology Corp
How it was run: as §1

HGK/MAP4K4 = molecular target: T3, HGK/MAP4K4 (Homo sapiens, UniProt O95819)
T3 construct: purchased Reaction Biology Corp
T3 sequence (O95819 whole entry): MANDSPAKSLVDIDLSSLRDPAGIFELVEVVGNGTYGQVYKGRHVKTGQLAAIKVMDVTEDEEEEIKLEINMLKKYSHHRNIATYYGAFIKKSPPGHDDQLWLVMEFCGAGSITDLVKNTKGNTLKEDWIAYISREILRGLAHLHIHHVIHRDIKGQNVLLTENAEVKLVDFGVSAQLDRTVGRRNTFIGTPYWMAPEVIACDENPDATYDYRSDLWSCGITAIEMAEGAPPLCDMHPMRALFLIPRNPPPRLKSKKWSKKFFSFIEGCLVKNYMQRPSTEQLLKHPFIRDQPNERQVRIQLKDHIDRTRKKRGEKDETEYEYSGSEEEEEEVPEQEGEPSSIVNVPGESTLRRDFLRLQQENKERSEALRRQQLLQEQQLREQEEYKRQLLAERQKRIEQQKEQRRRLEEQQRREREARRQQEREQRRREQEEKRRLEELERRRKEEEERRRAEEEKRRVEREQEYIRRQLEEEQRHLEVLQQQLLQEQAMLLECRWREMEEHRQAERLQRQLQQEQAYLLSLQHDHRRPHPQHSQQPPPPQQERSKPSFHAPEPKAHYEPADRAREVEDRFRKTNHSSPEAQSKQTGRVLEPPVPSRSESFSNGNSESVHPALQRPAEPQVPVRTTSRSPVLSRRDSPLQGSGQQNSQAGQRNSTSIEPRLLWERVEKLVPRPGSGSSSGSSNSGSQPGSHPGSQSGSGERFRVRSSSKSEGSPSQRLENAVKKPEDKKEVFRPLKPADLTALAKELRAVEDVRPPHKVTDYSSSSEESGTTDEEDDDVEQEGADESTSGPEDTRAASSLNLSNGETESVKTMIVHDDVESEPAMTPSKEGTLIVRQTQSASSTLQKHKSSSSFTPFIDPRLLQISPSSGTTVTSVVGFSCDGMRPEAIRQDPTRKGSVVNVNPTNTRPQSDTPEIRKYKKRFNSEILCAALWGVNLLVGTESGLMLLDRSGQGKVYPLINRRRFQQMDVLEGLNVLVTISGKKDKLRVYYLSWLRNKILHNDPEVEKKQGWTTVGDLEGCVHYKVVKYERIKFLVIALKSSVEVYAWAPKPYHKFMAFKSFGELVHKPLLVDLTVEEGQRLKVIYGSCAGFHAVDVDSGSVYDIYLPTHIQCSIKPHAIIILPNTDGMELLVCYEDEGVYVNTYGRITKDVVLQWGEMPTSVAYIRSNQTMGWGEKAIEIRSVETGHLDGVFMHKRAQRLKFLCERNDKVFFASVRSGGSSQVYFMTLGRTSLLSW
How it was run: as §1

LIMK2 = molecular target: T4, LIMK2 (Homo sapiens, UniProt P53671)
T4 construct: purchased Reaction Biology Corp
T4 sequence (P53671 whole entry): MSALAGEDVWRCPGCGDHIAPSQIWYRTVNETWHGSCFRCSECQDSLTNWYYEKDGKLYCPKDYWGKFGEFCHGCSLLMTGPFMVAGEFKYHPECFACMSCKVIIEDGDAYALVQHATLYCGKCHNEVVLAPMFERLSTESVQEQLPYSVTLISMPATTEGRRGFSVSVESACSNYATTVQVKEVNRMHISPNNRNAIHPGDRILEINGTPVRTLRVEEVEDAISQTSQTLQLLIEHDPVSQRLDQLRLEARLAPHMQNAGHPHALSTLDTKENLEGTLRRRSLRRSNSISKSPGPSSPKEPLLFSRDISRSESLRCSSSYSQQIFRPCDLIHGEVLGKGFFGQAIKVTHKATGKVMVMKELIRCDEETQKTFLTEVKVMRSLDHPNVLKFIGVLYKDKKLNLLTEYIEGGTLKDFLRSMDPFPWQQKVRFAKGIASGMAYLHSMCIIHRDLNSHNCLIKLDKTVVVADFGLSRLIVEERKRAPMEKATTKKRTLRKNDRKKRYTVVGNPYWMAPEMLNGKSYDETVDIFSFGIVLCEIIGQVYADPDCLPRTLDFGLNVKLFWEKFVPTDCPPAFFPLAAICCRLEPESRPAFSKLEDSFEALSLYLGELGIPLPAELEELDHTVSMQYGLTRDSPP
How it was run: as §1

MNK2 = molecular target: T5, MNK2 (Homo sapiens, UniProt Q9HBH9)
T5 construct: purchased Reaction Biology Corp
T5 sequence (Q9HBH9 whole entry): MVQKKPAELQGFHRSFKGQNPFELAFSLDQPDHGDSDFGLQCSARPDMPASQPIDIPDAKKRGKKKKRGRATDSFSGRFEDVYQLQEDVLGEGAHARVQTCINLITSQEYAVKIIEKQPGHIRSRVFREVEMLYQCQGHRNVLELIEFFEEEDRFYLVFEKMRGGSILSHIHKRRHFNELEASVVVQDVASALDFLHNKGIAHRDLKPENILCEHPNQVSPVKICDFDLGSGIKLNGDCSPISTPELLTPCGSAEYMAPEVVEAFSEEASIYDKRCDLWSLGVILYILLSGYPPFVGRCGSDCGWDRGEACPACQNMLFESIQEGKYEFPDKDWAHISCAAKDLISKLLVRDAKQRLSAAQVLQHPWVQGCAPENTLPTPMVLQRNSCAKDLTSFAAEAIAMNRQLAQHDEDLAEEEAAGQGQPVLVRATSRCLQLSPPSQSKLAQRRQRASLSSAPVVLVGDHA
How it was run: as §1

CDK9/cyclin K = molecular target: T6, CDK9/cyclin K (Homo sapiens, UniProt P50750)
T6 construct: purchased Reaction Biology Corp
T6 sequence (P50750 whole entry): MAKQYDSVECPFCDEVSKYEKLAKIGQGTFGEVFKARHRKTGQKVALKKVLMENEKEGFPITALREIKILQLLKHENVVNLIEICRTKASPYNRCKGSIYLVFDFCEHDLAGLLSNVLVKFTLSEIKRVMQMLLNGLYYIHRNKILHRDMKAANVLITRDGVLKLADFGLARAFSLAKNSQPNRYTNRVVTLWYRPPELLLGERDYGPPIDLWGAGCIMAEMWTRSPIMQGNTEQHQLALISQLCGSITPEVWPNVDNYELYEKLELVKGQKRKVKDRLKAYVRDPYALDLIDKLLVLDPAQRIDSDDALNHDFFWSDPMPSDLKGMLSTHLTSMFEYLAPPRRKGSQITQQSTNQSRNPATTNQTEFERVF
T6 sequence (O75909 whole entry partner): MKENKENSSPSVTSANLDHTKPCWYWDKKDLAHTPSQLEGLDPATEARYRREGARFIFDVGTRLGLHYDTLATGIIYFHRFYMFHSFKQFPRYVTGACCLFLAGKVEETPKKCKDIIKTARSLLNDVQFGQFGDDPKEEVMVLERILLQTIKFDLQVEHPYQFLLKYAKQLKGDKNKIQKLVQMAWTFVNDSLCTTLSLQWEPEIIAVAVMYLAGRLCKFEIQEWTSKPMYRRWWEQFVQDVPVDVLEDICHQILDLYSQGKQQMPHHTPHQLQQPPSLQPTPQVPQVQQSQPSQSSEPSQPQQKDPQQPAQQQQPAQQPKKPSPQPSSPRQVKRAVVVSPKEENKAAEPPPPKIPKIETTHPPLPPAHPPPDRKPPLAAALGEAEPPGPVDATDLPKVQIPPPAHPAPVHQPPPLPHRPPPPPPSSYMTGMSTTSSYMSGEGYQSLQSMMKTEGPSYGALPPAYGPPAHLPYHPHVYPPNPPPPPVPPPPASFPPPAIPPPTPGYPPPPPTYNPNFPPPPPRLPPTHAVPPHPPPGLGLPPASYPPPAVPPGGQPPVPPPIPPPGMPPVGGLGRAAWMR
How it was run: as §1

CHK2 = molecular target: T7, CHK2 (Homo sapiens, UniProt O96017)
T7 construct: purchased Reaction Biology Corp
T7 sequence (O96017 whole entry): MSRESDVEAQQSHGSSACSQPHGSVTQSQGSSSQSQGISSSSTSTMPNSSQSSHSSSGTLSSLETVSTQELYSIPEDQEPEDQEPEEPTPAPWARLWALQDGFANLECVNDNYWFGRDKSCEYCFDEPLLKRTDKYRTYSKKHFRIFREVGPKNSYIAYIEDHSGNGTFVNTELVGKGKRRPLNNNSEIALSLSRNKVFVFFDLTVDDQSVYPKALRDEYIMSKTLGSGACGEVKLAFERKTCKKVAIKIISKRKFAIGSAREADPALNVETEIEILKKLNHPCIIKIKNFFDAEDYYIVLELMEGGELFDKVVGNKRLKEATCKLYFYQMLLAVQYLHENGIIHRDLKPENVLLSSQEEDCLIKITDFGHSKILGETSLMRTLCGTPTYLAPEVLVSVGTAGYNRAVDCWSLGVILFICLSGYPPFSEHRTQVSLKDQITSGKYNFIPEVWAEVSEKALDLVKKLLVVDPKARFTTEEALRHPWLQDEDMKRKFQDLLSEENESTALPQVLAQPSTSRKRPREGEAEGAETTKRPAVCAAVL
How it was run: as §1

IKKb/IKBKB = molecular target: T8, IKKb/IKBKB (Homo sapiens, UniProt O14920)
T8 construct: purchased Reaction Biology Corp
T8 sequence (O14920 1-756): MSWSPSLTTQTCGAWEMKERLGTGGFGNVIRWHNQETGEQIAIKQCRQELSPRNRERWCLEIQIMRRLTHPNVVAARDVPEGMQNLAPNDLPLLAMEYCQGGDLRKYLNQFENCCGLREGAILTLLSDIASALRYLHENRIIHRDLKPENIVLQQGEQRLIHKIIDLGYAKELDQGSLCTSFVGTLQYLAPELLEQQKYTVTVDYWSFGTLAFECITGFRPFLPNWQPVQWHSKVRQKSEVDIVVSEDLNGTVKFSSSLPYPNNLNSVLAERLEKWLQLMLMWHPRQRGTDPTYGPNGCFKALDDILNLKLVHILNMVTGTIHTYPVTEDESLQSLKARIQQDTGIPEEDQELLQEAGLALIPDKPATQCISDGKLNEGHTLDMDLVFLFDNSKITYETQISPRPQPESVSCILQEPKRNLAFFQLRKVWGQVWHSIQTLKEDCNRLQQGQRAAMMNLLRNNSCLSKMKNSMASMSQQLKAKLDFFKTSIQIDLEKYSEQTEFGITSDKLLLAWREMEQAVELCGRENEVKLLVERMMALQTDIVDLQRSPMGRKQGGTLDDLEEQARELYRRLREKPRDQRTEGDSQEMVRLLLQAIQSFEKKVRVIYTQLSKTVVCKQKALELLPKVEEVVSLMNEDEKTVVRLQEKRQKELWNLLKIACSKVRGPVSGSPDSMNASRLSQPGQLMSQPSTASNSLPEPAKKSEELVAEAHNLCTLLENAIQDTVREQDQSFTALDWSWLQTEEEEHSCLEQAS
How it was run: as §1

HIPK1 = molecular target: T9, HIPK1 (Homo sapiens, UniProt Q86Z02)
T9 construct: purchased Reaction Biology Corp
T9 sequence (Q86Z02 whole entry): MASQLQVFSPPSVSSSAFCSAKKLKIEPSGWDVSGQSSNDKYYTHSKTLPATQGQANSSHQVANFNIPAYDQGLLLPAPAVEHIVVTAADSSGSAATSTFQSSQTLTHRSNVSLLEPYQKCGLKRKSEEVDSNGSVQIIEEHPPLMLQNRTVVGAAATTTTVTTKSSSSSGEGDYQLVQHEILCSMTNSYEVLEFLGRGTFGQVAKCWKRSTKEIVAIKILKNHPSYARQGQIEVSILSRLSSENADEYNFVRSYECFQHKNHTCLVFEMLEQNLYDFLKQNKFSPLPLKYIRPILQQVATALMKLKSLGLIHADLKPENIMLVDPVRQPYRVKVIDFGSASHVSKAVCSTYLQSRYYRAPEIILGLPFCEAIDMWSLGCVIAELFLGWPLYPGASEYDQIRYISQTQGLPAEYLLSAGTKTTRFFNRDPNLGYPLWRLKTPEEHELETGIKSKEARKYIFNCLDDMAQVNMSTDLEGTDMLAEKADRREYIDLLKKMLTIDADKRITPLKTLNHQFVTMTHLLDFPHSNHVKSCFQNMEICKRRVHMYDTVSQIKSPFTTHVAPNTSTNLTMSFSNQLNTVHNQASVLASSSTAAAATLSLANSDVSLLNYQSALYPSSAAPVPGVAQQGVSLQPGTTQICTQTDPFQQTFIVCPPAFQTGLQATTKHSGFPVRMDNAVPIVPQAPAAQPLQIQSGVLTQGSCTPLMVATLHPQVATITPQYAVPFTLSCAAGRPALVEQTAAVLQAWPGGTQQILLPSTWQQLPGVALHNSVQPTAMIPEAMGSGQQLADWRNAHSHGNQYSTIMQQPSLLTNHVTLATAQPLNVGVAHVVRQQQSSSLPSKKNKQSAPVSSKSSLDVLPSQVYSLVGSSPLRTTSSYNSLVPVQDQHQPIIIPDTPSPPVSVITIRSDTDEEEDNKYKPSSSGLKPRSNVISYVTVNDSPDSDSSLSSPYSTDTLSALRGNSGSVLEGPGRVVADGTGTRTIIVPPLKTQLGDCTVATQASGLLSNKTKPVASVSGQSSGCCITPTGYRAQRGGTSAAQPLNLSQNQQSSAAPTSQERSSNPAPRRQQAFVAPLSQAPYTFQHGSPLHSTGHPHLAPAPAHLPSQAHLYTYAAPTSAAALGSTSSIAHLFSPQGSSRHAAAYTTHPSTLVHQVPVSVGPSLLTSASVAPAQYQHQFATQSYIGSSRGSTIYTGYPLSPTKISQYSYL
How it was run: as §1

[1] = read-out: % Enzyme Activity (relative to DMSO controls) Run 1
[2] = read-out: % Enzyme Activity (relative to DMSO controls) Run 2

With `C=CC(=O)Nc1cccc(Nc2nc(Nc3ccc(OCCOC)c(F)c3)ncc2F)c1` [Compound 2] the inhibition at 3 µM (MEK3) was -15.3%, the remaining activity at 3 µM (MEK3; [1]) was 117% and the remaining activity at 3 µM (MEK3; [2]) was 113%. The inhibition at 3 µM (CLK1) was 24.1%, the remaining activity at 3 µM (CLK1; [1]) was 74.4% and the remaining activity at 3 µM (CLK1; [2]) was 77.4%. For the same compound, the inhibition at 3 µM (HGK/MAP4K4) was 1.27%, the remaining activity at 3 µM (HGK/MAP4K4; [1]) was 98.9% and the remaining activity at 3 µM (HGK/MAP4K4; [2]) was 98.6%. It also gave an inhibition at 3 µM (LIMK2) of -0.86%, a remaining activity at 3 µM (LIMK2; [1]) of 101% and a remaining activity at 3 µM (LIMK2; [2]) of 101%. It also gave an inhibition at 3 µM (MNK2) of 16.9%, a remaining activity at 3 µM (MNK2; [1]) of 83% and a remaining activity at 3 µM (MNK2; [2]) of 83.2%. The inhibition at 3 µM (CDK9/cyclin K) was 18.1%, the remaining activity at 3 µM (CDK9/cyclin K; [1]) was 81.7% and the remaining activity at 3 µM (CDK9/cyclin K; [2]) was 82.2%. The inhibition at 3 µM (CHK2) was 74.4%, the remaining activity at 3 µM (CHK2; [1]) was 25.9% and the remaining activity at 3 µM (CHK2; [2]) was 25.3%. It also gave an inhibition at 3 µM (IKKb/IKBKB) of 3.75%, a remaining activity at 3 µM (IKKb/IKBKB; [1]) of 95.4% and a remaining activity at 3 µM (IKKb/IKBKB; [2]) of 97.1%. The inhibition at 3 µM (HIPK1) was 10.3%, the remaining activity at 3 µM (HIPK1; [1]) was 87.6% and the remaining activity at 3 µM (HIPK1; [2]) was 91.7%.
